Assay results reported in patent US20100267629A1, “Enterostatin as Therapeutic Agent for Hypoglycemia” (Board of Supervisors of Louisiana State University and …, priority 2006, published 2010).

Key:
[1] = in vivo; cited from earlier work
F1-ATPase β-subunit = F1-ATPase β-subunit (Homo sapiens, UniProt P06576); conditions: effect of the analog on binding of 125I-β-casomorphin1-7 to F1-ATPase β-subunit; cited from earlier work
rats = conditions: in overnight fasted rats; cited from earlier work
AMPK = experiment: pAMPK Western blot in HepG2 cells, 15 min incubation; format: cell-based, human
Procedure: Human liver cells (HepG2 cell line, American Type Culture Collection, Manassas, Va.) were grown and maintained in Dulbecco's modified eagle's medium (Gibco, Carlsbad, Calif.) containing 10% fetal bovine serum, penicillin (100 I.U./ml), and streptomycin (100 μg/ml). The cells were then incubated for 15 min with 5 mM glucose and various concentrations of enterostatin (0.003, 0.01, 0.1, 1, and 3 μM) and/or of its antagonist β-casomorphin (BCM) (0.003, 0.01, 0.1, 1, and 3 μM). After incubation, the cells were lysed and the cytosolic proteins subjected to Western blot analysis for AMPK and pAMPK. The results for pAMPK activity are shown in FIG. 5A (enterostatin) and FIG. 5B (BCM). […] This effect was blocked by the presence of an antibody to the enterostatin receptor (anti F1-ATPase beta subunit).

F1-ATPase β-subunit, sequence (P06576 48-529): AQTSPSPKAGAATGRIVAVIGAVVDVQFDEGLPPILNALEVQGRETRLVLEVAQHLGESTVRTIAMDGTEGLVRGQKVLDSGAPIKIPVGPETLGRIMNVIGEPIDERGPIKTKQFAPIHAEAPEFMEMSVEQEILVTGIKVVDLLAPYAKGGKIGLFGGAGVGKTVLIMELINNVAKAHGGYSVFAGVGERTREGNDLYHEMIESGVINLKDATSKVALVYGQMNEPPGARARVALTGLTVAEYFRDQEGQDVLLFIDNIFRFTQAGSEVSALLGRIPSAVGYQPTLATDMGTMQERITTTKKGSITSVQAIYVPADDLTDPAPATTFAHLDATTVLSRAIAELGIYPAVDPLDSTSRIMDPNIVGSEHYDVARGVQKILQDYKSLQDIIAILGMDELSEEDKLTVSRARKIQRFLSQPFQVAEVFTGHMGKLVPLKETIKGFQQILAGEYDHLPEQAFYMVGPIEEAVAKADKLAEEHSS

Molecule | Binding of 125I-β-casomorphin1-7 (F1-ATPase β-subunit) | Intake of high fat diet (rats) | also measured
CC1=NS(=O)(=O)c2cc(Cl)ccc2N1 [Diazoxide, diazoxide] | – | – | Duration of action [1]: about 8 hr; Time to act (increase of blood sugar) [1]: ≤ 1 h
APGPR | Increased | Suppression | –
APGPRCY [enterostatin analog] | Increased | Suppression | –
APGPRY | Increased | No changes | –
APGPY | Increased | Suppression | –
CYAPGPR [enterostatin analog] | Displaced | Stimulation | –
CYDPGPR [enterostatin analog] | Displaced | Stimulation | –
DPGPR | Displaced | No changes | –
Glucagon: drug for severe hypoglycemia that stimulates the liver to release large amounts of glucose | – | – | Time to restore blood sugar [1]: 5 to 15 min
PDP | Increased | Suppression | –
PGP | Increased | No changes | –
PGPCY | Increased | No changes | –
VPDPR | Increased | Suppression | –
VPDPR-NH2 | Displaced | No changes | –
VPDPRCY [enterostatin analog] | Increased | Suppression | –
YGGAPGPR [enterostatin analog] | Increased | Suppression | –
YPDPR | Increased | Suppression | –
YPFPGPI [enterostatin analog] | Displaced | Stimulation | –
YPGPR | Increased | Suppression | –
YVPDPR | Increased | Suppression | –
cyclo-HP | – | ^bOnly inhibits food intake as cyclo-HP. | –
β-casomorphin [reference compound] | – | – | pAMPK levels (AMPK; HepG2, 0.1 or 1.0 μM, 15 min): increased pAMPK levels; Effect on pAMPK in presence of antibody anti F1-ATPase beta subunit (AMPK; HepG2, 15 min, 5 mM glucose): blocked this effect; AMPkinase activity shown by pAMPK (AMPK; HepG2, 15 min, 5 mM glucose, 0.003-3 μM): activated AMPkinase
